Test results published in ChEMBL document CHEMBL1909590, “Design, synthesis and docking studies of new quinoline-3-carbohydrazide derivatives as antitubercular agents” (2011).
≈ marks a conversion by molar mass, not a printed value.

What was measured:
Format in all cases: functional
[1] = tested on: Staphylococcus aureus; assay: Antibacterial activity against Staphylococcus aureus ATCC 25923 after 18 to 25 hrs by serial plate dilution method
[2] = tested on: Streptococcus pyogenes; assay: Antibacterial activity against Streptococcus pyogenes clinical isolate after 18 to 25 hrs by serial plate dilution method
[3] = tested on: Pseudomonas aeruginosa; assay: Antibacterial activity against Pseudomonas aeruginosa ATCC 27853 after 18 to 25 hrs by serial plate dilution method
[4] = tested on: Klebsiella pneumoniae; assay: Antibacterial activity against Klebsiella pneumoniae clinical isolates after 18 to 25 hrs by serial plate dilution method
[5] = tested on: Escherichia coli; assay: Antibacterial activity against Escherichia coli ATCC 25922 after 18 to 25 hrs by serial plate dilution method
[6] = tested on: Mycobacterium tuberculosis; assay: Antimycobacterial activity against Mycobacterium tuberculosis H37Rv ATCC 27294 using compound level ranging from 1 to 100 ug/mL after 7 days by resazurin reduction test; settings: H37Rv ATCC 27294, 168 h
[7] = tested on: Mycolicibacterium smegmatis; assay: Antimycobacterial activity against Mycobacterium smegmatis MC2 ATCC 19420 using compound level ranging from 1 to 100 ug/mL after 7 days by resazurin reduction test; settings: MC2 ATCC 19420, 168 h
[8] = tested on: Mycolicibacterium fortuitum; assay: Antimycobacterial activity against Mycobacterium fortuitum ATCC 19542 using compound level ranging from 1 to 100 ug/mL after 7 days by resazurin reduction test; settings: ATCC 19542, 168 h
[9] = tested on: Mycobacterium tuberculosis; assay: Growth inhibition of Mycobacterium tuberculosis H37Rv ATCC 27294 using compound level ranging from 1 to 100 ug/mL after 7 days by resazurin reduction test
[10] = tested on: Mycobacterium tuberculosis; assay: Antimycobacterial activity against Mycobacterium tuberculosis H37Rv ATCC 27294 using compound level ranging from 0.3125 to 5 ug/mL after 7 days by resazurin reduction test; settings: H37Rv ATCC 27294, 168 h
[11] = tested on: Mycolicibacterium smegmatis; assay: Antimycobacterial activity against Mycobacterium smegmatis MC2 ATCC 19420 using compound level ranging from 0.3125 to 5 ug/mL after 7 days by resazurin reduction test; settings: MC2 ATCC 19420, 168 h
[12] = tested on: Mycolicibacterium fortuitum; assay: Antimycobacterial activity against Mycobacterium fortuitum ATCC 19542 using compound level ranging from 0.3125 to 5 ug/mL after 7 days by resazurin reduction test; settings: ATCC 19542, 168 h

Compound	MIC [1]	MIC [2]	MIC [3]	MIC [4]	MIC [5]	MIC [6]	MIC [7]	MIC [8]	growth inhibition (GI) [9]	MIC [10]	MIC [11]	MIC [12]
Cc1cccc2c(/C=N/NC(=O)c3cnc4c(C(F)(F)F)cccc4c3O)c[nH]c12	0.8 µg/mL (≈ 1.94 µM)	0.4 µg/mL (≈ 0.97 µM)	0.4 µg/mL (≈ 0.97 µM)	0.1 µg/mL (≈ 0.243 µM)	0.1 µg/mL (≈ 0.243 µM)	1 µg/mL (≈ 2.43 µM)	1 µg/mL (≈ 2.43 µM)	10 µg/mL (≈ 24.3 µM)	95%	0.625 µg/mL (≈ 1.52 µM)	1.25 µg/mL (≈ 3.03 µM)	10 µg/mL (≈ 24.3 µM)
O=C(NNC(=S)Nc1ccccc1F)c1cnc2c(C(F)(F)F)cccc2c1O	0.8 µg/mL (≈ 1.89 µM)	0.4 µg/mL (≈ 0.943 µM)	0.4 µg/mL (≈ 0.943 µM)	0.1 µg/mL (≈ 0.236 µM)	0.1 µg/mL (≈ 0.236 µM)	1 µg/mL (≈ 2.36 µM)	10 µg/mL (≈ 23.6 µM)	10 µg/mL (≈ 23.6 µM)	95%	0.625 µg/mL (≈ 1.47 µM)	10 µg/mL (≈ 23.6 µM)	10 µg/mL (≈ 23.6 µM)
